Holding throughout (type): biochemical
Assay [1] addresses T1, CDK9/cyclin T complex (Homo sapiens, UniProt P50750).
T1 construct: purchased Proqinase GmbH, Germany
Put plainly: CDK9/cyclin T kinase assay (as for CDK7). To be noted: for remaining activity at 0.1 µM: 100 nM, mean of three (standard deviation), read-out: CDK9 % remaining kinase activity after incubation with 100 nM of compound; for IC50: Table 7, mean of three experiments, read-out: CDK9 kinase inhibition in vitro (IC50). The method in brief: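 Run as the CDK7 protocol with 50 ng CDK2/cyclin A or 100 ng CDK9/cyclin T; compound 30 min at 30 °C, then 2 μM ATP final for 20 min at 30 °C. ATP depletion by luciferase luminescence (PKLight), triplicate, normalised to no-enzyme and enzyme controls.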

Assay [2] addresses T2, TBK1 (Homo sapiens, UniProt Q9UHD2).
T2 construct: DU12569
T2 sequence (Q9UHD2 1-729): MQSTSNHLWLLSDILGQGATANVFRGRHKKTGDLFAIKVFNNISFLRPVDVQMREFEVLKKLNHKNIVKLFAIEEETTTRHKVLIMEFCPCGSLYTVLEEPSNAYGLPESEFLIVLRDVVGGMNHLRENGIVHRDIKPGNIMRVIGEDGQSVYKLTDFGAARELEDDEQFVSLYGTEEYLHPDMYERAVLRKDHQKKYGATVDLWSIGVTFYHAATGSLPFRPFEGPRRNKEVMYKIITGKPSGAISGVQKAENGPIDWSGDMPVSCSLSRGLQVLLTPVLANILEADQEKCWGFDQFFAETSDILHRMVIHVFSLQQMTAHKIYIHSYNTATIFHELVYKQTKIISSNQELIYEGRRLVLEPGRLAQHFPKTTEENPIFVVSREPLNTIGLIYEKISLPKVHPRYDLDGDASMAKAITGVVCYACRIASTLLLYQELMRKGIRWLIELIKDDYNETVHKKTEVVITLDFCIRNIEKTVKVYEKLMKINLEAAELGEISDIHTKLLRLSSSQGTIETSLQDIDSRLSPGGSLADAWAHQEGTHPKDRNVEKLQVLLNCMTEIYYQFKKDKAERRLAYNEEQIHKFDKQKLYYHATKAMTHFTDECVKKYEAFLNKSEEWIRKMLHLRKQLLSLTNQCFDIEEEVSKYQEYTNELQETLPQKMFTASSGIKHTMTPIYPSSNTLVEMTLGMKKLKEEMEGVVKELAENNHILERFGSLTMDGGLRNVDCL
Put plainly: Kinase screen: TBK1 / TBK1 (DU12569) assay. To be noted: 10 micromolar compound; for remaining activity at 10 µM: read-out: mean activity remaining (as a percentage of the original activity), TBK1. As to the method:
(§1) Generally, the same procedure was used for all assays. Since the total assay volume was 25.5 microliters, 0.5 microliters of inhibitors at 51× assay concentration were added to the plates before any other addition.
(§2) The basic procedure was to add 0.5 microliters inhibitor/control in DMSO to plate. Fifteen microliters of enzyme/substrate/buffer mix were added and incubated for 5 min. Ten microliters MgATP at the relevant concentration were added and incubated for 30 min. The assay was stopped by adding 5 microliters of 3% orthophosphoric acid. The assay was transferred to a p81 filter plate and read in a scintillation counter of 30 sec/well. Note that this assay procedure was not followed for MKK1, which instead involved a two-step assay, and PKC alpha, which required the addition of lipid vesicles.
TBK1 assay: TBK1 (5-20 mU diluted in 50 mM Tris pH 7.5, 0.1 mM EGTA, 1 mg/ml BSA) was assayed against a substrate peptide ([…]) (SEQ ID NO: 31) in a final volume of 25.5 μl containing 50 mM Tris pH 7.5, 300 μM substrate peptide, 10 mM magnesium acetate and 0.05 mM [33P-g-ATP] (50-1000 cpm/pmole) and incubated for 30 min at room temperature. Assays were stopped by addition of 5 μl of 0.5 M (3%) orthophosphoric acid and then harvested onto P81 Unifilter plates with a wash buffer of 50 mM orthophosphoric acid.
TBK1 (DU12569) assay: TBK1 (DU12569) (5-20 mU diluted in 50 mM Tris pH 7.5, 0.1 mM EGTA, 1 mg/ml BSA) was assayed against a substrate peptide ([…]) (SEQ ID NO: 37) in a final volume of 25.5 μl containing 50 mM Tris pH 7.5, 300 μM substrate peptide, 10 mM magnesium acetate and 0.05 mM [33P-g-ATP] (50-1000 cpm/pmole) and incubated for 30 min at room temperature. Assays were stopped by addition of 5 μl of 0.5 M (3%) orthophosphoric acid and then harvested onto P81 Unifilter plates with a wash buffer of 50 mM orthophosphoric acid.

The target in assay [3] is PIM2 (Homo sapiens, UniProt Q9P1W9). Put plainly: Kinase screen: PIM2 assay. Here is the method: as §1, §2
PIM2 assay: 5-20 mU of PIM2 (diluted in 50 mM Tris (pH 7.5), 0.1 mM EGTA, 1 mg/ml BSA, 0.1%, b-Mercaptoethanol) was assayed against substrate peptide ([…]) (SEQ ID NO: 23) in a final volume of 25.5 μl containing 50 mM Tris (pH 7.5), 0.1 mM EGTA, 0.5 mM CaCl2, 0.3 μM calmodulin, 0.1%, b-Mercaptoethanol, 300 μM substrate peptide, 10 mM magnesium acetate and 0.005 mM [33P-g-ATP] (500-1000 cpm/pmole) and incubated for 30 mins at room temperature. Assays were stopped by addition of 5 μl of 0.5M (3%) orthophosphoric acid. Assays were harvested onto P81 Unifilter plates using a wash buffer of 50 mM orthophosphoric acid.

Where [4] appears, read: 10 micromolar compound, read-out: mean activity remaining (as a percentage of the original activity), PIM2.

Where two headings read alike, the source gives them in different places. Where only a bound is given, the exact number is not on record here.

One may read the remaining activity as the signal under treatment as a percentage of the control signal. As a reminder, the IC50 is the concentration at which inhibition is half-maximal.

Sequence of PIM2 (Q9P1W9 whole entry, species assumed): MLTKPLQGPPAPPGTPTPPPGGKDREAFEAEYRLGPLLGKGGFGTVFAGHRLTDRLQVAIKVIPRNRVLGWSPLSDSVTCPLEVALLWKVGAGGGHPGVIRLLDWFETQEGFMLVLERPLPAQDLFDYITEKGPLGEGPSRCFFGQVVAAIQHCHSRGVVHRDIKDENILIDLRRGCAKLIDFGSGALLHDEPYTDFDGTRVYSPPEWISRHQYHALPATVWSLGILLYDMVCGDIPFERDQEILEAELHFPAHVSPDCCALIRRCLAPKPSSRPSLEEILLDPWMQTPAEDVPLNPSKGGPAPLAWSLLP
T1 sequence (P50750 whole entry): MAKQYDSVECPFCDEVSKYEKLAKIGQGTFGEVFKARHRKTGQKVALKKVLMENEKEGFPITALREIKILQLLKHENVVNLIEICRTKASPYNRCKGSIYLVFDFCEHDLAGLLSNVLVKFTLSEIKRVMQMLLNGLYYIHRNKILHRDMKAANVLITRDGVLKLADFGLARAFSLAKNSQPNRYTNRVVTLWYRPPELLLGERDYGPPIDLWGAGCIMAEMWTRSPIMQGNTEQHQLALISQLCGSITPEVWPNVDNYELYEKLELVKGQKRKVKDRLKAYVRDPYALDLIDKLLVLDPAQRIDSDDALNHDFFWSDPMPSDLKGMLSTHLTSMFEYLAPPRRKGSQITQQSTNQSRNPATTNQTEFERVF
T1 sequence (O60563 whole entry partner): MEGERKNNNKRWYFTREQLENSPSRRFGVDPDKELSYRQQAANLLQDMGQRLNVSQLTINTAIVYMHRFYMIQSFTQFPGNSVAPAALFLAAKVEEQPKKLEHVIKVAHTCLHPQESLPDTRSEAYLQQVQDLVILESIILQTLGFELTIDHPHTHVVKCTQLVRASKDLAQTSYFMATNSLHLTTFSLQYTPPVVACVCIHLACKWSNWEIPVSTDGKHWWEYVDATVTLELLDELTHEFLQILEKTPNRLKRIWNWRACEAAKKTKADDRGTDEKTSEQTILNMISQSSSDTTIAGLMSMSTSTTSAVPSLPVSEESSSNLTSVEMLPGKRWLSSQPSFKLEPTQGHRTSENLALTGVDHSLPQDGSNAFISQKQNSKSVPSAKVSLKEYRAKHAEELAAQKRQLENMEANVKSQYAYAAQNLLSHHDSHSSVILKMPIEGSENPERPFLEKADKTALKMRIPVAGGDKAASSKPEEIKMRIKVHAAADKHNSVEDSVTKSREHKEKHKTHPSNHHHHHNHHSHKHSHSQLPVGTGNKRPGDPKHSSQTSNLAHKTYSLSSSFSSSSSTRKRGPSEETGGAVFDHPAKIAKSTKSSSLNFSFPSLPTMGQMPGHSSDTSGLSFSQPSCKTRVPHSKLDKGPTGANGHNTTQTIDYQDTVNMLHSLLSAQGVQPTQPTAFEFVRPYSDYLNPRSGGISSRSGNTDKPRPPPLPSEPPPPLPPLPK

Consider `CC[C@H](CO)Nc1cc(NCc2ccccc2)n2ncc(C(C)C)c2n1` [ICEC0067], for which, in assay [1], the remaining activity at 0.1 µM is 85% and the IC50 came to 100 nM. In addition, the remaining activity at 10 µM in assay [2] turned out to be 85%. For the same compound, the remaining activity at 10 µM in assay [3] (setting [4]) is 92%.

`C=C[C@H](CO)Nc1cc(NCc2ccccc2)n2ncc(C(C)C)c2n1` [ICEC0065]: the remaining activity at 0.1 µM in assay [1] amounted to 100%. Further, the 50% inhibitory concentration (IC50) in assay [1] was over 1000 nM. Besides, the remaining activity at 10 µM in assay [2] was 83%; in assay [3] (setting [4]), 93%.

Turning to `CC(C)c1cnn2c(NCc3ccccc3)cc(N[C@@H](CO)[C@H](O)CO)nc12` [ICEC0318, (3S)-3-(7-(Benzylamino)-3-isopropylpyrazolo[1,5-a]pyrimidin-5-ylamino)butane-1,2,4-triol], the remaining activity at 0.1 µM in assay [1] came out at 56%. Further, the remaining activity at 10 µM in assay [2] worked out at 87%; in assay [3] (setting [4]), 94%.

On to `CC(C)c1cnn2c(NCc3ccccc3F)cc(NCCCCCN)nc12` [ICEC-0232], for which the “mean activity remaining (as a percentage of the original activity), TBK1” value in assay [2] was 91%. Also, in assay [3] (10 micromolar compound), the “mean activity remaining (as a percentage of the original activity), PIM2” value is 102%.

For `CC(C)c1cnn2c(NCc3ccccc3)cc(NCCCCCCCN)nc12` [BS-181], the remaining activity at 10 µM in assay [3] (PIM2, 10 μM, read-out: Mean Remaining Enzyme Activity (%)) stood at 102%.

Source of the values: US8067424B2, “Selective inhibitors for cyclin-dependent kinases” (Emory University, priority 2007, dated 2011).
